# According to article PMC12016938, “A small molecule PKCε inhibitor reduces hyperalgesia induced by paclitaxel or opioid withdrawal” (JCI Insight, 2025):
# Values joined by “and” are separate entries in the source; they are usually repeats but may differ in a detail not shown here. Identical values can stand only once. “Also recorded” adds a separate entry of the source.
# What was measured:
# [1] = target: PKCδ (Homo sapiens, UniProt Q05655); experiment: Lance-FRET kinase assay, PKCδ; assay type: biochemical; set-up: purchased SignalChem Biotech
# Method: Kinase assays. CP612 was assayed against His-AVI–tagged human PKCε (1 nM) produced in Sf9 cells, and ROCK1 (Carna Biosciences; 5 nM) using the Lance-FRET kinase assay system (PerkinElmer Revvity). Other human recombinant PKCs (SignalChem Biotech) were assayed in triplicate at the following concentrations: PKCβII 1.6 nM, PKCγ 500 pM, PKCδ 5 nM, PKCθ 500 pM, and PKCζ 500 pM. PKCs were incubated in a 15 μL reaction volume with kinase buffer (20 mM Tris-HCL [pH 7.4], 10 mM MgCl2, 0.25 mM EGTA, 0.1 mg/mL BSA, and 0.15% Triton X-100), 50 nM ULight-labeled CREBtide […] (PerkinElmer, TRF0107, Revvity), and test compound. […] After incubation at 27°C for another 60 minutes, phosphorylation was detected using a FlexStation 3 Microplate Reader (Molecular Devices) in LANCE TR-FRET mode (excitation = 340 nm, emission = 665 nm) and expressed as relative fluorescence units (RFU). The percentage of inhibition was calculated as: (signal without test compound − signal with test compound)/(signal without test compound − signal without ATP) × 100. […]
# Kinase assays used 11-point concentration-response curves and results were analyzed by nonlinear regression using Prism 9 (GraphPad Software) to determine IC50 values. […] Scores for pain threshold, conditioned place preference, and self-administration were analyzed by ANOVA using the following factors. […]
# [2] = tested on: somatic signs of morphine withdrawal; experiment: Somatic signs of morphine withdrawal precipitated by naloxone; assay type: in vivo, DBA/2J mice; set-up: key to Score: Rearing / Score: Teeth chatter / Score: Body shakes / Score: Wall climbing / Score: Backpedaling / Score: Hopping: score of 1 per occurrence and episode; key to Global Withdrawal Score (sum of all scores): sum of behavior scores, 1 point per occurrence/episode; details: for Global Withdrawal Score (sum of all scores) / Score: Backpedaling / Score: Body shakes / Score: Hopping / Score: Rearing / Score: Teeth chatter / Score: Wall climbing: individual mice, 20 min interval; for Global Withdrawal Score (sum of all scores): after naloxone (5 mg/kg, i.p.); for Score: Backpedaling / Score: Body shakes / Score: Hopping / Score: Rearing / Score: Teeth chatter / Score: Wall climbing: number of observations after naloxone (5 mg/kg, i.p.)
# Method: In addition to hyperalgesia, withdrawal from repeated administration of morphine produces somatic signs of withdrawal and conditioned place aversion. We tested the effects of CP612 on these responses. […] Two hours after this last injection of saline or morphine, mice were administered naloxone (5 mg/kg, i.p.) to precipitate somatic signs of withdrawal and conditioned place aversion. Withdrawal from repeated administration of morphine evoked somatic signs of withdrawal (Figure 11, A–C, and Supplemental Figure 2); only the highest dose of CP612 (40 mg/kg) reduced them (Figure 11, A–C) [H PKC inhibition (3, n = 62) = 33.34, P < 0.001]. Withdrawal from repeated administration of morphine also evoked conditioned place aversion (Figure 11, A and C) [F PKC inhibition (5,78) = 7.16, P < 0.001; mice receiving repeated administration of saline with vehicle versus mice receiving repeated administration of morphine with vehicle, P < 0.001], and this was not modified by CP612 at any dose tested (all P > 0.079).
# The place conditioning apparatus was an acrylic box enclosed in light- and sound-attenuating, ventilated chambers (MED Associates). The box had 2 compartments separated by a removable sliding door. […] The dimensions of each compartment were 13.5 × 27 × 17 cm. Infrared light beams and photodetectors located along the walls of the box measured general activity and location of the mouse in each compartment, which were recorded using Activity Monitor version 7.0.5.10 software (Med Associates). On day 0 (pretest), drug-naive mice were acclimated for 15 minutes to the place conditioning apparatus without the sliding door, so they had free access to both compartments of the apparatus. This established a baseline side preference, based on the amount of time spent in each compartment. […] On day 6 (conditioning day), mice were pretreated with vehicle (10 mL/kg, i.p.) or CP612 (5, 10, 20, or 40 mg/kg, i.p.), followed by a single injection of morphine (100 mg/kg, i.p.) 4 hours later. Two hours after this last injection of morphine, mice were administered naloxone (5 mg/kg, i.p.), to precipitate withdrawal, and were immediately confined to 1 side of the conditioning apparatus for 20 minutes. During this conditioning period, mice were filmed (Raspberry Pi Camera) to assess somatic signs of withdrawal ([39]). Given the limited number of cameras and the poor quality of some videos, we were only able to film a subset of mice. The following behaviors were given a score of 1 per occurrence and episode: body shakes (paw tremors and wet dog shakes), teeth chatter, rearing, hopping, wall climbing, and backpedaling. These scores were summed to obtain a global withdrawal score and were obtained from an independent observer who was blind to the experimental conditions. A subset of videos was scored by 2 observers, to ensure internal validity (Cronbach’s α = 0.980, Correlation Observer r = 0.97, slope 1.15, P < 0.005). On day 7 (test day), mice were placed in the conditioning apparatus with free access to both compartments, for 15 minutes. We recorded the time spent in each compartment.
# Gregory-Flores et al. (Supplementary Table and Figures)
# Figure S2. Behavioral scores of morphine withdrawal precipitated by naloxone. Male mice
# [3] = target: T1, CLK1 (CDC Like Kinase 1) (Homo sapiens, UniProt P49759); experiment: scanMax kinome panel, CLK1; assay type: binding; details: 200 nM CP612; read-out: scanMax % of control, CLK1
# T1 construct: purchased Eurofins-DiscoverX
# Method: CP612 was screened for kinome specificity at 200 nM against 468 kinases using the scanMax assay panel from Eurofins-DiscoverX. CP612 inhibited 10 other WT kinases besides PKCε, all to < 10% of control: CLK1 (CDC Like Kinase 1), CLK4, PKN1 (Protein kinase N1), PKN2, PKCδ, PKCη, PKCθ, PRKG2 (Protein Kinase CGMP-Dependent 2), ROCK1, and ROCK2.
# Sequence of PKCδ (Q05655 whole entry): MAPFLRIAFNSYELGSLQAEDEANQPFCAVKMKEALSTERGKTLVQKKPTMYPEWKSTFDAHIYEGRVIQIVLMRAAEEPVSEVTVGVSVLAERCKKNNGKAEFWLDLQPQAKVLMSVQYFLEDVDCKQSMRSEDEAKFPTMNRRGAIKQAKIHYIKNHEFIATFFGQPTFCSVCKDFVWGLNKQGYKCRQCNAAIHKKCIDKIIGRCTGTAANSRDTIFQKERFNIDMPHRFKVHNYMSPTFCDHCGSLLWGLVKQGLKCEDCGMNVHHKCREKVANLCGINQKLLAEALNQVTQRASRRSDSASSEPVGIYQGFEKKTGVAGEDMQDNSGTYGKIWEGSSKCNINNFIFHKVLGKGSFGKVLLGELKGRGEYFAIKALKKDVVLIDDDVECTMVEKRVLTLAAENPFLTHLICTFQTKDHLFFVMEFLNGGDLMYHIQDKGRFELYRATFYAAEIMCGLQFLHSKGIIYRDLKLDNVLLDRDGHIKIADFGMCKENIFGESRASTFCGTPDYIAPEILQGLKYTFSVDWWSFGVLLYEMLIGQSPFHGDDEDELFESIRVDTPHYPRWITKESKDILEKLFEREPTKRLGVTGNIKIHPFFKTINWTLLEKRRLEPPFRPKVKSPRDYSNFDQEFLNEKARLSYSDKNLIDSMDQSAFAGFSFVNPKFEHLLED
# T1 sequence (P49759 whole entry): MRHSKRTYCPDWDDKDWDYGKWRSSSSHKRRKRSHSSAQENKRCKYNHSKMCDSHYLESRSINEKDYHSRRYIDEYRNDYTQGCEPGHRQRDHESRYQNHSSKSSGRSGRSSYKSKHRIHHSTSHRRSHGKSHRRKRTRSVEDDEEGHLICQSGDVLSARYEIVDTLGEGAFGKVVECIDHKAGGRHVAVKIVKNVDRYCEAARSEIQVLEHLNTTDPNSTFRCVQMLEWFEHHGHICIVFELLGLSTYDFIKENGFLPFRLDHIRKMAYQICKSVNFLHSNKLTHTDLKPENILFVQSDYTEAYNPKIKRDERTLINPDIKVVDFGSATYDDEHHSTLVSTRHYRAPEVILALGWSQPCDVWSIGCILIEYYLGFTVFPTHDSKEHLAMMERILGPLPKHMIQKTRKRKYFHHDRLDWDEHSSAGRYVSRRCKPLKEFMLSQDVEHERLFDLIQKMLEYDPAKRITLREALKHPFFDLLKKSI
structure (smiles),measurement,setting,value
N[C@H](CNC(=O)C1(c2ccc(Cl)cc2)CCCC1)c1ccc(C(=O)Nc2ccncc2)cc1 [CP612],inhibition at 0.03 µM,"[1]; 30 nM CP612, read-out: Inhibition of novel PKCs (PKCδ)",> 50%
same,IC50,[1]; Figure 1B PKC isozyme panel,18.8 nM
same,Global Withdrawal Score (sum of all scores),[2]; Morphine + CP612 10 mg/kg,26 and 36 and 21 and 32 and 23 and 19 and 28 and 25 and 22 and 8 and 11 and 13 and 12
same,Score: Backpedaling,[2]; Morphine + CP612 10 mg/kg,0 and 2 and 1
same,Score: Body shakes,[2]; Morphine + CP612 10 mg/kg,6 and 9 and 7 and 10 and 2 and 11 and 8 and 1
same,Score: Hopping,[2]; Morphine + CP612 10 mg/kg,0 and 1
same,Score: Rearing,[2]; Morphine + CP612 10 mg/kg,16 and 15 and 9 and 10 and 7 and 13 and 12 and 2 and 3 and 8
same,Score: Teeth chatter,[2]; Morphine + CP612 10 mg/kg,3 and 4 and 2 and 0 and 1
same,Score: Wall climbing,[2]; Morphine + CP612 10 mg/kg,1 and 7 and 2 and 3 and 0 and 4 and 5
same,Global Withdrawal Score (sum of all scores),[2]; Morphine + CP612 40 mg/kg,17 and 23 and 18 and 11 and 8 and 4 and 10 and 13 and 9
same,Score: Backpedaling,[2]; Morphine + CP612 40 mg/kg,3.5 and 0 and 1
same,Score: Body shakes,[2]; Morphine + CP612 40 mg/kg,1 and 5 and 9 and 2 and 0
same,Score: Hopping,[2]; Morphine + CP612 40 mg/kg,0.5 and 0 and 1
same,Score: Rearing,[2]; Morphine + CP612 40 mg/kg,9 and 14 and 2 and 4 and 1 and 6 and 7 and 8
same,Score: Teeth chatter,[2]; Morphine + CP612 40 mg/kg,0.5 and 3 and 5 and 2 and 1 and 0
same,Score: Wall climbing,[2]; Morphine + CP612 40 mg/kg,2 and 1 and 0 and 3
same,Somatic signs of naloxone-precipitated morphine withdrawal,"[2]; male DBA/2J mice, CP612 10 mg/kg i.p. (low dose)",evoked signs of withdrawal
same,Effect on somatic signs of naloxone-precipitated morphine withdrawal,"[2]; male DBA/2J mice, CP612 40 mg/kg i.p., 40 mg/kg",attenuated; also recorded: reduced; also recorded: decreased
same,remaining binding at 0.2 µM,[3],< 10%
